Source: PMC9954146, “Anti-Leukaemic Activity of Rilpivirine Is Mediated by Aurora A Kinase Inhibition” (Cancers, 2023)

Legend:
[1] = tested on: SKOV-3 ovarian-cancer cells; parameters: method as in PMID 28390117; details: FACS analysis; cited from earlier work
K-562 cells [2] = assay: Resazurin cell viability assay; format: cell-based, human; details: 72 h
Experimental: Cell viability was determined by a resazurin-based assay as described previously. Briefly, 5 × 10^3 cells/well were seeded into 96-well plates (Corning Inc., Corning, NY, USA) in 180 µL of RPMI 1640 medium and incubated overnight at 37 °C with 5% CO2. Next day, cells were treated with rilpivirine after serially diluted (1:2 dilution for final concentrations ranging from 0.625 µM to 40 µM) or DMSO (0.1%) for specified time periods (24, 48, or 72 h). At the end of the treatment period, 20 µL of resazurin (0.1 mg/mL in PBS) was added per well and incubated for further 4 h. Fluorescence intensities were recorded at 570 nm (excitation)/585 nm (emission) using an EnVision® multilabel plate reader (PerkinElmer, MA, USA). Drug concentrations required for cell viability reduction by 50% (GI50) compared with untreated (DMSO vehicle-treated only) control were determined by a non-linear regression model using GraphPad Prism software version 7.02 (La Jolla, CA, USA).

K-562 cells [3] = assay: Cell cycle analysis (PI, flow cytometry); format: cell-based, human
Experimental: (§1) To determine the effect of rilpivirine on cell-cycle distribution a flow cytometry-based analysis was performed after staining the untreated and treated cells with propidium iodide (PI) solution [22]. Briefly, 6 × 10^4 cells/well were seeded in 3 mL of medium per well in 6-well plates. After overnight incubation at 37 °C in 5% CO2, the cells were incubated with the test compounds for specified time points. The medium-containing cells were then taken out from the wells and transferred to FACS tubes. Cells were then pelleted by centrifugation at 300 g for 5 min. Afterward, cells were fixed by using 70% (v/v) ice-cold ethanol for 15 min and then again pelleted by centrifugation (300 g for 5 min). Finally, the cells were incubated with 200 µL of PI staining solution (50 μg/mL PI, 0.1% sodium citrate, 0.1 mg/mL RNase A, and 0.1% Triton X-100) for 1.5 h at room temperature in the dark. After the incubation period, the cells were analysed using a CytoFLEX flow cytometer (Beckman Coulter Inc., Brea, CA, USA). CytExpert software version 2.1 was used for data analysis and graph preparation.

Aurora A = tested on: Aurora A; parameters: method as in PMID 36297298; details: cited from earlier work
U-937 cells = assay: Cell cycle analysis (PI, flow cytometry); format: cell-based, human; details: 10 µM, 24 h
Experimental: as §1

NB4 cells = assay: Cell cycle analysis (PI, flow cytometry); format: cell-based, human; details: 10 µM, 24 h
Experimental: as §1

HL-60 cells = assay: Resazurin cell viability assay; format: cell-based; details: Homo sapiens, HL-60, 72 h; read-out: 72-h GI50
Experimental: Cell viability was determined by a resazurin-based assay as described previously. […] At the end of the treatment period, 20 µL of resazurin (0.1 mg/mL in PBS) was added per well and incubated for further 4 h.

KG1 cells = tested on: KG1 cells; parameters: method as in PMID 18056483; details: cited from earlier work

## CC(C)CN(C[C@@H](O)[C@H](Cc1ccccc1)NC(=O)O[C@H]1CO[C@H]2OCC[C@H]21)S(=O)(=O)c1ccc(N)cc1 [darunavir]
[1]
  cell-cycle phase arrest: predominance of a G0/G1 phase arrest

## N[C@@H]1CCCN(c2c(/C=C3\SC(=O)NC3=O)cccc2-c2ccccc2)C1 [AZD1208]
K-562 cells [2]
  GI50: ~38 µM
K-562 cells [3]; 60 μM, 48 h
  cell-cycle arrest: induced G1 arrest

## C[C@H](Cn1cnc2c(N)ncnc21)OCP(=O)(O)O [tenofovir]
[1]
  cell-cycle phase arrest: predominance of a G0/G1 phase arrest

## Nc1nc(NC2CC2)c2ncn([C@H]3C=C[C@@H](CO)C3)c2n1 [abacavir]
[1]
  cell-cycle phase arrest: predominance of a G0/G1 phase arrest

## Cc1cc(C#N)cc(C)c1Oc1nc(Nc2ccc(C#N)cc2)nc(N)c1Br [etravirine]
Aurora A
  Aurora A kinase inhibition: inability to inhibit Aurora A kinase
[1]
  cell-cycle phase arrest: predominance of a G0/G1 phase arrest
  proportion of cells in the G2/M phase: failed to increase the proportion of cells in the G2/M phase
U-937 cells
  G2/M phase arrest: failed to induce a G2/M phase arrest
K-562 cells [3]; 10 µM, 24 h
  G2/M phase arrest: failed to induce a G2/M phase arrest
NB4 cells
  G2/M phase arrest: failed to induce a G2/M phase arrest

## Nc1ccn([C@@H]2O[C@H](CO)[C@@H](O)[C@@H]2O)c(=O)n1 [cytarabine]
HL-60 cells
  GI50: 0.07 µM

## CC(C)(C)n1nc(-c2ccc(Cl)cc2)c2c(N)ncnc21 [PP2]
KG1 cells
  cell-cycle arrest: induced G1 cell-cycle arrest

## O=C1Nc2ccc(Cl)cc2[C@@](C#CC2CC2)(C(F)(F)F)O1 [efavirenz]
[1]
  cell-cycle phase arrest: predominance of a G0/G1 phase arrest
